The nature of data set [1]: antitumor activity (test not specified).
Data set [2] relates to cultured lymphoid leukemia L1210 cells. In words: inhibition of DNA synthesis in cultured L1210 leukemia cells. The class given is cell-based. How it is done: (§1) The septacidin analogs 2 and 3 (corresponding to the compounds of Examples I and II, respectively) were tested first in cultured lymphoid leukemia L1210 cells for inhibition of nucleic acid syntheses and for cytotoxicity,by previously reported procedures. A sample of natural septacidin (compound 1) was obtained from the National Cancer Institute and included for comparison. Data on adriamycin (compound 4) are also included. The analogs were then tested, along with 1 and 4, against lymphocytic leukemia P388 implanted in mice, under the auspices of the NCI and according to its protocols which use the increased survival time of treated animals compared to controls as the measure of antitumor efficacy.
(§2) ^b Assay described in G. Tong, W. W. Lee, D. R. Black and D. W. Henry

The next data set is described as follows: solubility. The class given is physicochemical.
In data set [3] the test system is lymphocytic leukemia P388 implanted in mice. Kind of data set: antitumor efficacy vs P388 leukemia in mice (increased survival time). The data set is classed as in vivo. Conditions: for antitumor activity in mouse tests: NCI criteria, doses of 0.5-1.0 mg/kg; for Optimum Antitumor Efficacy, T/C / Optimum Antitumor Dose: P388 leukemia in mice; for Optimum Antitumor Efficacy, T/C: at optimum dose (septacidin 0.50, compounds 2 and 3 1.0 mg/kg), compounds 2 and 3 average from two tests; for Optimum Antitumor Dose: dose producing the highest T/C. Here is the method:
as §1
^c Assay described in R. I. Geran, N. H. Greenberg, M. M. MacDonald,
A. M. Schumacker and B. J. Abbott, Cancer Chemother. Rep., Part 3, 3 (No.
2), 9 (1972). Protocol 1.200. Other doses were higher or lower by a facto
of 2. Each compound has 2-4 active doses. Compounds were of borderline
solubility, and some doses were injection as suspensions. Water, water +
Tween 80, or saline + Tween 80 (emul. agent, ICI) were used as vehicles.
By definition, a compound is active if T/C […] 125. For compounds 2
and 3 the T/C is the average from two tests. Optimum dose is the one
producing the highest T/C.

The subject of data set [4] is cultured lymphoid leukemia L1210 cells. Kind of data set: inhibition of RNA synthesis in cultured L1210 leukemia cells. The data set is classed as cell-based. How it is done:
as §1, §2

Data set [5] has the same test system. In words: in vitro activity in cultured L1210 cells (inhibition of nucleic acid syntheses). The data set is classed as cell-based. Here is the method: as §1, §2
Data set [6] shares this test system. Kind of data set: cytotoxicity vs cultured L1210 leukemia cells. The class given is cell-based. Conditions: for IC50: cultured L1210 leukemia cells, read-out: Cytotoxicity I50. How it is done:
as §1, §2

Data set [7] deals with isolated helical DNA. Conditions: cited from earlier work.
Data set [8] deals with cultured lymphoid leukemia L1210 cells. Conditions: cited from earlier work.
Data set [9] has the same test system. The conditions noted are these: data from Tong et al. 1976, read-out: Inhibition of Synthesis of RNA, ED50; cited from earlier work.
For data set [10] the test system is unchanged. Conditions: data from Tong et al. 1976, read-out: Inhibition of Synthesis of DNA, ED50; cited from earlier work.
Data set [11] relates to lymphocytic leukemia P388 implanted in mice. The conditions noted are these: cited from earlier work.
The subject of data set [12] is isolated helical DNA. Kind of data set: binding to isolated helical DNA in solution (effect on helix-coil transition temperature).
From the text: The in vivo efficacy of adriamycin is much higher, but there are other differences.
as §2
by the modified procedure.

[13] abbreviates: Mus musculus, cultured L1210 leukemia cells, read-out: Inhibition of Synthesis of DNA, ED50.
Where [14] appears, read: Mus musculus, cultured L1210 leukemia cells, read-out: Inhibition of Synthesis of RNA, ED50.
Where [15] appears, read: in vitro, compared with septacidin (1).

“Also recorded” adds a separate entry of the source. Where two headings read alike, the source gives them in different places. Where only a bound is given, the exact number is not on record here.

On to `CCCCCC(=O)NCC(=O)NC1C(C)OC(Nc2ncnc3[nH]cnc23)C(O)C1O` [Example VI, 6-[4,6-Didoexy-4-(caproylglycyl)amino-β-L-glucopyranosylamino]-9H-purine], for which, in [1], the “antitumor activity” value was “inactive; also recorded: loss of activity was total”.

With `CCCCCCCCCCCC(=O)NCC(=O)N[C@@H]1[C@@H](O)[C@H](O)[C@@H](Nc2ncnc3[nH]cnc23)O[C@H]1C` [Compound 3, 6-[4,6-Dideoxy-4-(lauroylglycyl)amino-β-L-glucopyranosylamino]-9H-purine], the IC50 in data set [2] (setting [13]) amounted to 29000 nM. Further, in the data set “solubility”, the “solubility in CH3OH” value is recorded as “moderately soluble” and the “solubility in H2O or saline” value is “slightly soluble”. Moreover, the “antitumor activity in mouse tests” value in data set [3] (P388 in mice) is listed as “confirmed activity”. In data set [3] (qd 1-9), the “Optimum Antitumor Efficacy, T/C” value came out at 137% and the “Optimum Antitumor Dose” value is given as 1.0 mg/kg. Further, in [3] (fatty acid shortened from 16 to 12 carbons, compared with 2), the “efficacy in vivo” value is listed as “slight loss of efficacy in vivo”. Besides, the IC50 in data set [4] (setting [14]) was 18000 nM. Further, in data set [5] (compared with septacidin (1) or analog 2), the “in vitro activity” value is recorded as “noticeably less potent; also recorded: decreased activity in vitro”. In data set [6] (Mus musculus), the IC50 was > 10000 nM.

`COc1cccc2c1C(=O)c1c(O)c3c(c(O)c1C2=O)C[C@@](O)(C(=O)CO)C[C@@H]3O[C@H]1C[C@H](N)[C@H](O)[C@H](C)O1` [Adriamycin]: the “Binding to Isolated Helical DNA in Solution, ΔTm” value in the data set with isolated helical DNA [7] (modified procedure, data from Tong et al. 1976) is 13.6 °C. In addition, in the data set on isolated helical DNA [7] (ΔTm), the “binding to isolated helical DNA in solution” value is listed as “binds strongly”. In addition, the “cytotoxicity” value in [8] was “highly cytotoxic”. The IC50 was 32 nM in [8] (cultured L1210 leukemia cells, data from Tong et al. 1976, read-out: Cytotoxicity I50); 670 nM in [9]; 1500 nM in data set [10]. Further, the “Optimum Antitumor Efficacy, T/C” value in [11] (P388 leukemia in mice, at 1.0 mg/kg, qd 1-9, data from Tong et al. 1976) is reported as 193%. The “Optimum Antitumor Dose” value in data set [11] (P388 leukemia in mice, qd 1-9, data from Tong et al. 1976) is listed as 1.0 mg/kg. The “in vivo efficacy” value in [11] (adriamycin compared with 2) is listed as “much higher”.

Take `CC(C)CCCCCCCCCCCCC(=O)NCC(=O)NC1C(C)OC(Nc2ncnc3[nH]cnc23)C(O)C1O` [Compound 2, 6-[4,6-Dideoxy-4-(isopalmitoylglycyl)amino-β-L-glucopyranosylamino]-9H-purine]: the IC50 was 2600 nM in [2] (setting [13]), 880 nM in data set [4] (setting [14]) and > 20000 nM in data set [6] (Mus musculus). The “potency in the DNA test” value in [2] (setting [15]) is listed as “not as potent”. Also, the “solubility in CH3OH” value in “solubility” is listed as “moderately soluble”. Further, in “solubility”, the “solubility in H2O or saline” value was “slightly soluble”. In data set [3] (P388 in mice), the “antitumor activity in mouse tests” value is listed as “confirmed activity”. Besides, the “Optimum Antitumor Efficacy, T/C” value in data set [3] (qd 1-9) is 160%. The “Optimum Antitumor Dose” value in [3] (qd 1-9) is on record as 1.0 mg/kg. The “Binding to Isolated Helical DNA in Solution, ΔTm” value in the data set with isolated helical DNA [12] amounted to 0.6 °C. For the same compound, in the data set on isolated helical DNA [12] (ΔTm), the “binding to isolated helical DNA in solution” value was “binds only weakly”. For the same compound, the “response in the RNA test” value in data set [4] (setting [15]) is on record as “a response nearly the same as 1”. For the same compound, the “inhibition of nucleic acid synthesis” value in data set [5] is “potent inhibition of nucleic acid synthesis”. For the same compound, the “antitumor activity” value in [1] was “enhanced antitumor activity”. Further, the “potency compared with adriamycin” value in data set [1] (comparison of both in vivo and in vitro data) is “comparable in potency”. Besides, in data set [6] (at soluble levels), the “cytotoxic effects” value was “could not be observed at soluble levels”.

For `CC(C)CCCCCCCCCCCCC(=O)NCC(=O)NC1C(O)C(O)C(Nc2ncnc3nc[nH]c23)OC1C(O)CO` (stereo not drawn) [Septacidin], the IC50 in data set [2] (cultured L1210 cells, corrected for 75% purity, assuming inactive impurities, read-out: Inhibition of Synthesis of DNA, ED50, corrected for purity) was 230 nM; in data set [2] (cultured L1210 leukemia cells, read-out: Inhibition of Synthesis of DNA, ED50), 300 nM; in data set [4] (cultured L1210 cells, corrected for 75% purity, assuming inactive impurities, read-out: Inhibition of Synthesis of RNA, ED50, corrected for purity), 530 nM; in data set [4] (cultured L1210 leukemia cells, read-out: Inhibition of Synthesis of RNA, ED50), 700 nM; in [6], > 5000 nM. Besides, in data set [3] (P388 in mice, qd 1-9, corrected for 75% purity, assuming inactive impurities), the “Optimum Antitumor Dose, corrected for purity” value was found to be 0.38 mg/kg. In addition, in [3] (P388 in mice), the “antitumor activity in mouse tests” value was “high antitumor potency”. The “Optimum Antitumor Efficacy, T/C” value in data set [3] (qd 1-9) is 154%. Also, the “Optimum Antitumor Dose” value in [3] (qd 1-9) was 0.50 mg/kg.

The record behind these values is patent US4086416A, “Septacidin analogs” (Stanford Research Institute, priority 1977, dated 1978).
